# Patent US20260130395A1, “Water Dispersible Botanical Compositions” (Aquila Black Limited, priority 2021, published 2026)
# Assay: Stability of cannabinoid compounds and Vitamin E components in Beverage 1 (AB White) by LCMSMS
# Type: physicochemical
# Conditions: for Stability of Plant-Derived Cannabinoid Compounds in AB White, 8° C.: AB White stored at 8° C.; for Stability of Plant-Derived Cannabinoid Compounds in AB White, 21-25° C.: AB White stored at 21-25° C.
# Method: The stability of the plant-derived cannabinoid compounds and Vitamin E components of the beverage stored 8° C. and at room temperature (21-25° C.) were monitored, over a period of 570 days via Liquid Chromatography-tandem Mass Spectrometry [LCMSMS, Agilent 6590, C18, 3×50 mm, 2.7 m (Agilent InfinityLab Poroshell 120 EC-C18), Electrospray Ionization detector]. The LCMSMS was calibrated for 0-1000 ng/ml cannabinoids with the same resin material used in the preparation of the concentrates. At each time period, 100 ml of beverage was diluted with 10 ml of methanol and injected into the LCMSMS for analysis.
structure (smiles),measurement,setting,value
"CCCCCc1cc(O)c(C/C=C(\C)CCC=C(C)C)c(O)c1 [CBG, cannabigerol]","Stability of Plant-Derived Cannabinoid Compounds in AB White, 8° C.",0 days,4.87 µg/mL
same,"Stability of Plant-Derived Cannabinoid Compounds in AB White, 8° C.",1 days,4.74 µg/mL
same,"Stability of Plant-Derived Cannabinoid Compounds in AB White, 8° C.",2 days,4.91 µg/mL
same,"Stability of Plant-Derived Cannabinoid Compounds in AB White, 8° C.",3 days,4.74 µg/mL
same,"Stability of Plant-Derived Cannabinoid Compounds in AB White, 8° C.",5 days,4.88 µg/mL
same,"Stability of Plant-Derived Cannabinoid Compounds in AB White, 8° C.",8 days,4.86 µg/mL
same,"Stability of Plant-Derived Cannabinoid Compounds in AB White, 8° C.",9 days,4.89 µg/mL
same,"Stability of Plant-Derived Cannabinoid Compounds in AB White, 8° C.",10 days,4.77 µg/mL
same,"Stability of Plant-Derived Cannabinoid Compounds in AB White, 8° C.",11 days,4.87 µg/mL
same,"Stability of Plant-Derived Cannabinoid Compounds in AB White, 8° C.",12 days,4.87 µg/mL
same,"Stability of Plant-Derived Cannabinoid Compounds in AB White, 8° C.",15 days,4.81 µg/mL
same,"Stability of Plant-Derived Cannabinoid Compounds in AB White, 8° C.",16 days,4.84 µg/mL
same,"Stability of Plant-Derived Cannabinoid Compounds in AB White, 8° C.",17 days,4.78 µg/mL
same,"Stability of Plant-Derived Cannabinoid Compounds in AB White, 8° C.",18 days,4.81 µg/mL
same,"Stability of Plant-Derived Cannabinoid Compounds in AB White, 8° C.",19 days,4.83 µg/mL
same,"Stability of Plant-Derived Cannabinoid Compounds in AB White, 8° C.",22 days,4.75 µg/mL
same,"Stability of Plant-Derived Cannabinoid Compounds in AB White, 8° C.",23 days,4.89 µg/mL
same,"Stability of Plant-Derived Cannabinoid Compounds in AB White, 8° C.",24 days,4.83 µg/mL
same,"Stability of Plant-Derived Cannabinoid Compounds in AB White, 8° C.",25 days,4.89 µg/mL
same,"Stability of Plant-Derived Cannabinoid Compounds in AB White, 8° C.",26 days,4.77 µg/mL
same,"Stability of Plant-Derived Cannabinoid Compounds in AB White, 8° C.",29 days,4.91 µg/mL
same,"Stability of Plant-Derived Cannabinoid Compounds in AB White, 8° C.",30 days,4.79 µg/mL
same,"Stability of Plant-Derived Cannabinoid Compounds in AB White, 8° C.",60 days,4.68 µg/mL
same,"Stability of Plant-Derived Cannabinoid Compounds in AB White, 8° C.",90 days,4.66 µg/mL
same,"Stability of Plant-Derived Cannabinoid Compounds in AB White, 8° C.",120 days,4.89 µg/mL
same,"Stability of Plant-Derived Cannabinoid Compounds in AB White, 8° C.",150 days,4.83 µg/mL
same,"Stability of Plant-Derived Cannabinoid Compounds in AB White, 8° C.",180 days,4.71 µg/mL
same,"Stability of Plant-Derived Cannabinoid Compounds in AB White, 8° C.",210 days,4.73 µg/mL
same,"Stability of Plant-Derived Cannabinoid Compounds in AB White, 8° C.",240 days,4.69 µg/mL
same,"Stability of Plant-Derived Cannabinoid Compounds in AB White, 8° C.",270 days,4.72 µg/mL
same,"Stability of Plant-Derived Cannabinoid Compounds in AB White, 8° C.",300 days,4.74 µg/mL
same,"Stability of Plant-Derived Cannabinoid Compounds in AB White, 8° C.",330 days,4.69 µg/mL
same,"Stability of Plant-Derived Cannabinoid Compounds in AB White, 8° C.",360 days,4.66 µg/mL
same,"Stability of Plant-Derived Cannabinoid Compounds in AB White, 8° C.",390 days,4.68 µg/mL
same,"Stability of Plant-Derived Cannabinoid Compounds in AB White, 8° C.",420 days,4.66 µg/mL
same,"Stability of Plant-Derived Cannabinoid Compounds in AB White, 8° C.",450 days,4.68 µg/mL
same,"Stability of Plant-Derived Cannabinoid Compounds in AB White, 8° C.",480 days,4.64 µg/mL
same,"Stability of Plant-Derived Cannabinoid Compounds in AB White, 8° C.",510 days,4.49 µg/mL
same,"Stability of Plant-Derived Cannabinoid Compounds in AB White, 8° C.",540 days,4.53 µg/mL
same,"Stability of Plant-Derived Cannabinoid Compounds in AB White, 8° C.",570 days,4.46 µg/mL
same,"Stability of Plant-Derived Cannabinoid Compounds in AB White, 21-25° C.",0 days,4.87 µg/mL
same,"Stability of Plant-Derived Cannabinoid Compounds in AB White, 21-25° C.",1 days,4.73 µg/mL
same,"Stability of Plant-Derived Cannabinoid Compounds in AB White, 21-25° C.",2 days,4.72 µg/mL
same,"Stability of Plant-Derived Cannabinoid Compounds in AB White, 21-25° C.",3 days,4.75 µg/mL
same,"Stability of Plant-Derived Cannabinoid Compounds in AB White, 21-25° C.",5 days,4.89 µg/mL
same,"Stability of Plant-Derived Cannabinoid Compounds in AB White, 21-25° C.",8 days,4.90 µg/mL
same,"Stability of Plant-Derived Cannabinoid Compounds in AB White, 21-25° C.",9 days,4.79 µg/mL
same,"Stability of Plant-Derived Cannabinoid Compounds in AB White, 21-25° C.",10 days,4.68 µg/mL
same,"Stability of Plant-Derived Cannabinoid Compounds in AB White, 21-25° C.",11 days,4.74 µg/mL
same,"Stability of Plant-Derived Cannabinoid Compounds in AB White, 21-25° C.",12 days,4.88 µg/mL
same,"Stability of Plant-Derived Cannabinoid Compounds in AB White, 21-25° C.",15 days,4.87 µg/mL
same,"Stability of Plant-Derived Cannabinoid Compounds in AB White, 21-25° C.",16 days,4.80 µg/mL
same,"Stability of Plant-Derived Cannabinoid Compounds in AB White, 21-25° C.",17 days,4.80 µg/mL
same,"Stability of Plant-Derived Cannabinoid Compounds in AB White, 21-25° C.",18 days,4.72 µg/mL
same,"Stability of Plant-Derived Cannabinoid Compounds in AB White, 21-25° C.",19 days,4.68 µg/mL
same,"Stability of Plant-Derived Cannabinoid Compounds in AB White, 21-25° C.",22 days,4.68 µg/mL
same,"Stability of Plant-Derived Cannabinoid Compounds in AB White, 21-25° C.",23 days,4.85 µg/mL
same,"Stability of Plant-Derived Cannabinoid Compounds in AB White, 21-25° C.",24 days,4.80 µg/mL
same,"Stability of Plant-Derived Cannabinoid Compounds in AB White, 21-25° C.",25 days,4.86 µg/mL
same,"Stability of Plant-Derived Cannabinoid Compounds in AB White, 21-25° C.",26 days,4.78 µg/mL
same,"Stability of Plant-Derived Cannabinoid Compounds in AB White, 21-25° C.",29 days,4.76 µg/mL
same,"Stability of Plant-Derived Cannabinoid Compounds in AB White, 21-25° C.",30 days,4.73 µg/mL
same,"Stability of Plant-Derived Cannabinoid Compounds in AB White, 21-25° C.",60 days,4.83 µg/mL
same,"Stability of Plant-Derived Cannabinoid Compounds in AB White, 21-25° C.",90 days,4.65 µg/mL
same,"Stability of Plant-Derived Cannabinoid Compounds in AB White, 21-25° C.",120 days,4.59 µg/mL
same,"Stability of Plant-Derived Cannabinoid Compounds in AB White, 21-25° C.",150 days,4.63 µg/mL
same,"Stability of Plant-Derived Cannabinoid Compounds in AB White, 21-25° C.",180 days,4.79 µg/mL
same,"Stability of Plant-Derived Cannabinoid Compounds in AB White, 21-25° C.",210 days,4.75 µg/mL
same,"Stability of Plant-Derived Cannabinoid Compounds in AB White, 21-25° C.",240 days,4.79 µg/mL
same,"Stability of Plant-Derived Cannabinoid Compounds in AB White, 21-25° C.",270 days,4.62 µg/mL
same,"Stability of Plant-Derived Cannabinoid Compounds in AB White, 21-25° C.",300 days,4.67 µg/mL
same,"Stability of Plant-Derived Cannabinoid Compounds in AB White, 21-25° C.",330 days,4.71 µg/mL
same,"Stability of Plant-Derived Cannabinoid Compounds in AB White, 21-25° C.",360 days,4.69 µg/mL
same,"Stability of Plant-Derived Cannabinoid Compounds in AB White, 21-25° C.",390 days,4.70 µg/mL
same,"Stability of Plant-Derived Cannabinoid Compounds in AB White, 21-25° C.",420 days,4.72 µg/mL
same,"Stability of Plant-Derived Cannabinoid Compounds in AB White, 21-25° C.",450 days,4.73 µg/mL
same,"Stability of Plant-Derived Cannabinoid Compounds in AB White, 21-25° C.",480 days,4.46 µg/mL
same,"Stability of Plant-Derived Cannabinoid Compounds in AB White, 21-25° C.",510 days,4.51 µg/mL
same,"Stability of Plant-Derived Cannabinoid Compounds in AB White, 21-25° C.",540 days,4.48 µg/mL
same,"Stability of Plant-Derived Cannabinoid Compounds in AB White, 21-25° C.",570 days,4.47 µg/mL
